Laboratory results: publication PMC10891067, “A co-assembly platform engaging macrophage scavenger receptor A for lysosome-targeting protein degradation” (Nature Communications, 2024)
Residues, ends and D or L forms follow the SMILES beside them. *: point of attachment. Fmoc = O=C(OCC1c2ccccc2-c2ccccc21)*; Ahx = NCCCCCC(=O)O

Tests used:
[1] = In vivo localization and clearance assay of 17A-Lytaca (IVIS); design: species or system mouse; conditions: psoriasis mice, i.p. Cy-labeled 17A-Lytaca (Cy5-fm-17Abp 5 mg/kg, Cy7-fm-SRAL 7.3 mg/kg)
Experimental: Fluorescence imaging in both the Cy5 and Cy7 channels was conducted using the in vivo imaging system (IVIS Spectrum) at 4, 8, 12, 24, and 48 h post-injection. Further, for biodistribution assessment, mice were sacrificed at 6 h post-injection, and skins along with major organs (heart, liver, spleen, lung, and kidney) were removed for ex vivo fluorescence imaging.

[2] = Serum clearance kinetics of 17A-Lytaca relevant peptides; format: in vivo, mouse; conditions: healthy mice, i.p. Cy-labeled 17A-Lytaca (Cy5-fm-17Abp 15 mg/kg, Cy3-fm-SRAL 22 mg/kg), IVIS, n = 3
Experimental: Serum samples were collected at 0, 1, 2, 3, 4, 8, 12, and 24 h for analysis. The fluorescence intensity of serum was measured with the in vivo imaging system (IVIS) spectrum.

IL-17A [3] = target: T1, IL-17A (Mus musculus, UniProt Q62386); assay: Lysosome inhibition assay (LPT, BafA1); format: cell-based; design: host or cells: added exogenously to RAW264.7, SR-A-KO RAW264.7, U-118 MG, DC 2.4 or HaCaT cells; conditions: RAW264.7, 0.5 μg/ml IL-17A + 50 μM 17A-Lytaca, 6 h
T1 sequence (Q62386 26-158): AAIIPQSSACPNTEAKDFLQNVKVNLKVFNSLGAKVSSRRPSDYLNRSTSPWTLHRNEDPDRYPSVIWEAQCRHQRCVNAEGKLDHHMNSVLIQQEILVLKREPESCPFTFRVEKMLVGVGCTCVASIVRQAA
Experimental: To confirm the involvement of lysosomes, RAW264.7 cells were pretreated with PBS, LPT (0.1 mg/ml), or BafA1 (100 nM) for 2 h at 37 °C. […] The accumulation of IL-17A in the cells was then measured via flow cytometry, following the aforementioned procedure.

IL-17A [4] = target: T1, IL-17A; assay: IL-17A binding competition experiment with IL-17RA (IL-17A uptake); format: cell-based; design: host or cells: added exogenously to RAW264.7, SR-A-KO RAW264.7, U-118 MG, DC 2.4 or HaCaT cells; conditions: RAW264.7, with fi-SRAL and fi-17Abp mixture and IL-17A
Experimental: To verify the binding of the IL-17A by mixed fi-17Abp and fi-SRAL, RAW264.7 cells were treated with 0.5 μg/ml IL-17A, 50 μM mixed fi-SRAL and fi-17Abp and IL-17RA at 0, 0.0125, 0.025, 0.05, 0.1, or 0.2 μg/ml for 6 h. Then, flow cytometry analysis was used to measure the intracellular IL-17A level according to the procedure mentioned above.

## C[C@H](NC(=O)[C@H](CCC(=O)O)NC(=O)[C@H](C)NC(=O)[C@H](CCC(=O)O)NC(=O)[C@H](C)NC(=O)[C@H](CCC(=O)O)NC(=O)[C@H](C)NC(=O)[C@H](CCC(=O)O)NC(=O)[C@H](C)NC(=O)[C@H](CCC(=O)O)NC(=O)[C@H](C)NC(=O)[C@H](CCC(=O)O)NC(=O)[C@H](C)NC(=O)[C@H](CCC(=O)O)NC(=O)[C@H](C)NC(=O)[C@H](CCC(=O)O)NC(=O)[C@H](C)NC(=O)[C@H](CCC(=O)O)NC(=O)[C@H](C)NC(=O)[C@H](CCC(=O)O)NC(=O)[C@H](C)NC(=O)[C@H](CCC(=O)O)NC(=O)[C@H](C)NC(=O)[C@H](CCC(=O)O)NC(=O)[C@H](C)NC(=O)[C@H](CCC(=O)O)NC(=O)[C@H](C)NC(=O)[C@H](CCC(=O)O)NC(=O)[C@H](C)NC(=O)[C@H](CCC(=O)O)NC(=O)CCCCCNC(=O)OCC1c2ccccc2-c2ccccc21)C(N)=O [fm-SRAL] ({Fmoc-Ahx}-EAEAEAEAEAEAEAEAEAEAEAEAEAEAEA-NH2)
[1]
  Time up to which the peptide remained detectable in vivo: 48 h
[2]
  Time up to which the serum fluorescent signal was detectable: ≤ 8 h

## CO/C1=C\C(C)=C\[C@@H](C)[C@@H](O)[C@@H](C)C/C(C)=C/C=C/[C@H](OC)[C@@H]([C@@H](C)[C@@H](O)[C@H](C)[C@@]2(O)C[C@@H](O)[C@H](C)[C@@H](C(C)C)O2)OC1=O [BafA1, Bafilomycin A1]
IL-17A [3]
  IL-17A accumulation in cells with lysosome inhibitor (in words): significantly higher IL-17A accumulation in cells

## IL-17RA: IL-17A receptor protein used as competitor for the 17Abp binding domain of IL-17A
IL-17A [4]
  Effect on intracellular IL-17A signal (in words): concentration-dependent attenuation
